In general, Ki refers to a measure of affinity in units of concentration, obtained from inhibition or displacement.

We go through seven compounds from patent US5326771A, “Piperidylmethyl-substituted chroman derivatives” (Bayer Aktiengesellschaft, priority 1991, dated 1994).

One assay deals with T1, Dopamine D2 receptor (Rattus norvegicus, UniProt P61169).
T1 construct: membranes from the striatum of the rat; from tissue; host or cells: rat striatum membranes
In words: Dopamine D2 receptor test (3H-sulpiride bonding, rat striatum membranes). The assay is classed as binding. Particulars: Ki calculated from IC50 of displacement curves. As to the method:
This test is carried out in accordance with the following literature reference: Imafuku J. (1987), Brain Research 402; 331-338.
The bonding of the selective D2 receptor antagonist ^3 H-sulpiride to membranes from the striatum of the rat is measured here. Compounds which bond to dopamine D2 receptors inhibit the bonding of ^3 H-sulpiride as a function of the concentration. IC50 values are determined from the displacement curves, and the inhibition constants Ki are calculated from these.

The next assay concerns the target 5-HT1 receptor. In words: Affinity for the 5-HT1 receptor (receptor-bonding, 3H-serotonin, calf hippocampus membranes). Type of assay: binding. Conditions: calf hippocampus membrane preparations, 3H-serotonin as radioligand. As to the method: The high affinity of the compounds according to the invention for 5-hydroxytryptamine receptors of the subtype 1 is shown by way of example in Table [A]. The values stated are data which were determined from receptor-bonding studies using calf hippocampus membrane preparations. ^3 H-Serotonin was used as the radioactively labelled ligand for this purpose.

In the next assay the target is T2, 5-HT1A receptor (Bos taurus, UniProt F6Q2H9).
T2 construct: 5-HT1A receptors in calf hippocampus membranes; from tissue; host or cells: calf hippocampus membranes
T2 sequence (F6Q2H9 1-422): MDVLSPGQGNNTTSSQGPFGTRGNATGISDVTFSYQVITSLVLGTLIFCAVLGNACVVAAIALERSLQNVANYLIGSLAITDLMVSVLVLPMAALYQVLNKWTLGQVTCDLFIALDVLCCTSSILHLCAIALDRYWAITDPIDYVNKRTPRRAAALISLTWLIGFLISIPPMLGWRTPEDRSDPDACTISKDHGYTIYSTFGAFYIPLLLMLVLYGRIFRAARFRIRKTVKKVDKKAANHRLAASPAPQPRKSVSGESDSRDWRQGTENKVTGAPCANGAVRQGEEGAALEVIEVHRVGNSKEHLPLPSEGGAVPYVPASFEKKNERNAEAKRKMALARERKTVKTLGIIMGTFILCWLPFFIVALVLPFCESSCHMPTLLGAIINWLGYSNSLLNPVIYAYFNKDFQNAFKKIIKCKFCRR
In words: Affinity for the 5-HT1A receptor (3H-ipsapirone bonding, calf hippocampus membranes). Type of assay: binding. As to the method: [W. U. Dompert et al., Naunyn-Schmiedeberg's Arch. Pharmacol. (1985), 328, 467-470].
The bonding of ^3 H-ipsapirone to 5-HT1A receptors in calf hippocampus membranes is measured in this test.

For another assay, the system named is α-adrenergic. Particulars: in the form of its hydrochloride; Eur. J. Med. Chem. 22 (6), 539-544; cited from earlier work.

Structures can show the parent of a compound that is named as a salt.

T1 sequence (P61169 whole entry): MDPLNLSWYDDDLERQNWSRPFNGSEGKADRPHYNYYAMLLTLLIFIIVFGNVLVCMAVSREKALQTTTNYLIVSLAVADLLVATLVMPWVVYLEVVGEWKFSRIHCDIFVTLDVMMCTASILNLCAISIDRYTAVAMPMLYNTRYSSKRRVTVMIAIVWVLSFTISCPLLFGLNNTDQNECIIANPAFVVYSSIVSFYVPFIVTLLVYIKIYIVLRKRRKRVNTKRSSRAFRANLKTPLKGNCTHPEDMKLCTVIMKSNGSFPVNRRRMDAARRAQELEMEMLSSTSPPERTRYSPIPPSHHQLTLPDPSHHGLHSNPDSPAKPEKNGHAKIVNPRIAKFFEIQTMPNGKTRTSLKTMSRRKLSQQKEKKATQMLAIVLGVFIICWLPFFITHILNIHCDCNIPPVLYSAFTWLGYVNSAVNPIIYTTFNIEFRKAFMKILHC

On to `OC1(c2ccc(Cl)c(C(F)(F)F)c2)CCN(CC2CCc3ccccc3O2)CC1` (centres unmarked) [Example 8], for which the Ki on Dopamine D2 receptor was 0.9 nM. `OC1(c2cccc(C(F)(F)F)c2)CCN(CC2CCc3ccccc3O2)CC1` (centres unmarked) [Example 10]: the inhibition constant Ki at Dopamine D2 receptor was 2.3 nM. As to `COc1cccc2c1OC(CN1CCC(O)(c3ccc(Cl)cc3)CC1)CC2` (centres unmarked) [Example 1, 2-[4-(4-Chlorophenyl)-4-hydroxy-piperidin-1-yl]methyl-8-methoxy-chroman hydrochloride], the inhibitory constant (Ki) on 5-HT1 receptor stood at 22 nM. Regarding `COc1cccc2c1OC(CN1CCC(O)(c3cccc(C(F)(F)F)c3)CC1)CC2` (centres unmarked) [Example 9], the affinity at 5-HT1A receptor, expressed as Ki, was 6 nM.

For `COc1cccc2c1OC(CN1CCC(c3ccccc3)(c3ccccc3)CC1)CC2` (centres unmarked) [Example 5], the Ki on 5-HT1A receptor turned out to be 9.9 nM. Consider `OC1(c2ccc(Cl)cc2)CCN(CC2CCc3ccccc3O2)CC1` (centres unmarked) [Example 4], for which the inhibition constant (Ki) on Dopamine D2 receptor is 2.5 nM; at 5-HT1 receptor it was 76 nM. In the case of `c1ccc2c(c1)CCC(CN1CCCCC1)O2` (centres unmarked) [1-[(3,4-dihydro-2H-1-benzopyran-2-yl)methyl]piperidine], in the assay with α-adrenergic, the α-adrenergic blocking action entry was “having an α-adrenergic blocking action”.
